Key:
Assay type in all cases: biochemical
JAK1 = JAK1 (Homo sapiens, UniProt P23458); experiment: JAK kinase activity, homogeneous time-resolved fluorescence (JAK1 reaction system); settings: ATP 2 μM, JAK1 protein 0.2 ng/μL; read-out: JAK 1 activity
Method in brief: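 Kinase activity read as the 665 nm/615 nm time-resolved fluorescence ratio (320 nm excitation) after EDTA-containing antibody and XL-615 addition. Reaction ran 1 h at pH 7.0 (Hepes, MgCl2, DTT) with 0.2 ng/μL JAK1 and ATP at 2 μM. IC50 derived by Hill-slope fit.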

JAK2 = JAK2 (Homo sapiens, UniProt O60674); experiment: JAK kinase activity, homogeneous time-resolved fluorescence (JAK2 reaction system); settings: ATP 2 μM, JAK2 protein 0.01 ng/μL
Chain of JAK2 (O60674 whole entry): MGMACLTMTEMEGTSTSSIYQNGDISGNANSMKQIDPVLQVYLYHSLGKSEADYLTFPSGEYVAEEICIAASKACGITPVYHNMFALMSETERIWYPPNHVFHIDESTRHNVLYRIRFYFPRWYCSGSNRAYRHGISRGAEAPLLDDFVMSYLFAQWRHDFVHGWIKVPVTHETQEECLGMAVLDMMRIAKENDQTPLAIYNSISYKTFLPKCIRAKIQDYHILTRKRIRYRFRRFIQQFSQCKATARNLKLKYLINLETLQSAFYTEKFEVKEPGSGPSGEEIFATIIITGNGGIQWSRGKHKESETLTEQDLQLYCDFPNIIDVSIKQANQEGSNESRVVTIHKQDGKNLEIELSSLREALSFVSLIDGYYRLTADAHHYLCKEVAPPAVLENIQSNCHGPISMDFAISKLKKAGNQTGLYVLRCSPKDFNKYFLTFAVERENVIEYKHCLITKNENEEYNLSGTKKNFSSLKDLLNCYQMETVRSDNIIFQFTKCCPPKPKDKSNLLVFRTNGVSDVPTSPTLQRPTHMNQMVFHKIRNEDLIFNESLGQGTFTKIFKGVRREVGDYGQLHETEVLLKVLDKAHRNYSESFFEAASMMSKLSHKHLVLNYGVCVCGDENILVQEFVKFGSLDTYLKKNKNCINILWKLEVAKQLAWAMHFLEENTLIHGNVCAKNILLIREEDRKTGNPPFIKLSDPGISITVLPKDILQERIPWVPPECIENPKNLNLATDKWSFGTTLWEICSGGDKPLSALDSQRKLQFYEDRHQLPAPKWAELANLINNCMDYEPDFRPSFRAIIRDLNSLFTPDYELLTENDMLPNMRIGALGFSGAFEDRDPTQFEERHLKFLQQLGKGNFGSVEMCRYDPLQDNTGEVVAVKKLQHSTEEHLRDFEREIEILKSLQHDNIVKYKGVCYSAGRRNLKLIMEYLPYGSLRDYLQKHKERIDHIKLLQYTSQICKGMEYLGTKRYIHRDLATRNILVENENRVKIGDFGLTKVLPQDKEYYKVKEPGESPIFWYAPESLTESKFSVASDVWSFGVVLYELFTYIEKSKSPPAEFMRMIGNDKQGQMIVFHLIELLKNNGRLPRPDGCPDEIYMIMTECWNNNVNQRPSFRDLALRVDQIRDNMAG
Method in brief: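 IC50 derived by Hill-equation fit of the 665/615 nm time-resolved fluorescence ratio after EDTA-containing detection mix with anti-phosphosubstrate antibody. Preceding 1 h reaction contained 2 μM ATP, 0.01 ng/μL JAK2, substrate, 50 mM Hepes pH 7.0, 5 mM MgCl2, 1 mM DTT.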

JAK3 = target: T1, JAK3 (Homo sapiens, UniProt P52333); experiment: JAK kinase activity, homogeneous time-resolved fluorescence (JAK3 reaction system); settings: ATP 2 μM, JAK3 protein 0.04 ng/μL; read-out: JAK 3 activity
T1 sequence (P52333 1-1124): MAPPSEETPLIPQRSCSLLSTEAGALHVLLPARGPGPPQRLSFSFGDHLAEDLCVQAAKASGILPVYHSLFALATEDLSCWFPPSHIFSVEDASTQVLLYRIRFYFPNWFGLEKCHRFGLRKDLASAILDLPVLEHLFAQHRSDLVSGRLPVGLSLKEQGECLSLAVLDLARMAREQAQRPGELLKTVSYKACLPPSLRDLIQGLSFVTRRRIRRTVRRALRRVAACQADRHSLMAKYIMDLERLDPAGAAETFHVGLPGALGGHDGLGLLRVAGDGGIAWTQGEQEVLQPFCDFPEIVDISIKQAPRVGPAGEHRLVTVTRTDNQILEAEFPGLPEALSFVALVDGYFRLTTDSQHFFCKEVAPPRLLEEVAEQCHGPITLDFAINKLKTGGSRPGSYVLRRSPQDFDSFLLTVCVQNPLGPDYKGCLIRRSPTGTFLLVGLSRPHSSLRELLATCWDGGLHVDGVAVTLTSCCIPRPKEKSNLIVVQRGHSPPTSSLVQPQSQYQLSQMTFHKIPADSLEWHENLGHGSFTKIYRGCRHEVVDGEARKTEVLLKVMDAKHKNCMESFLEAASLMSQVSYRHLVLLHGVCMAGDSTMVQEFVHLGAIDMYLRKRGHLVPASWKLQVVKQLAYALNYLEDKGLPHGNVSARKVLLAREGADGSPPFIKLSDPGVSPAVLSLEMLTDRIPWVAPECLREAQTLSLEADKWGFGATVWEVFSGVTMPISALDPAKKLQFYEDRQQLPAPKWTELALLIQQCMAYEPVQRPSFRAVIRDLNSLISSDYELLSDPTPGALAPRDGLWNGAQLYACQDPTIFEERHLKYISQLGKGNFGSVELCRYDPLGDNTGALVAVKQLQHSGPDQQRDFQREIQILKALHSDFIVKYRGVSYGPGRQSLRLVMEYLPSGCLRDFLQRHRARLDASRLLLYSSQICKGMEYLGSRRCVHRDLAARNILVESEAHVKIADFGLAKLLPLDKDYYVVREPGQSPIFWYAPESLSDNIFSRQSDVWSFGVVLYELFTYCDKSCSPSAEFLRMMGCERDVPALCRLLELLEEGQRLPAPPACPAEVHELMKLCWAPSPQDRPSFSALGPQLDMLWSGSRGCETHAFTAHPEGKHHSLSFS

TYK2 = TYK2 (Homo sapiens, UniProt P29597); experiment: JAK kinase activity, homogeneous time-resolved fluorescence (TYK2 reaction system); settings: ATP 2 μM, TYK2 protein 0.2 ng/μL; read-out: TYK 2 activity
Chain of TYK2 (P29597 whole entry): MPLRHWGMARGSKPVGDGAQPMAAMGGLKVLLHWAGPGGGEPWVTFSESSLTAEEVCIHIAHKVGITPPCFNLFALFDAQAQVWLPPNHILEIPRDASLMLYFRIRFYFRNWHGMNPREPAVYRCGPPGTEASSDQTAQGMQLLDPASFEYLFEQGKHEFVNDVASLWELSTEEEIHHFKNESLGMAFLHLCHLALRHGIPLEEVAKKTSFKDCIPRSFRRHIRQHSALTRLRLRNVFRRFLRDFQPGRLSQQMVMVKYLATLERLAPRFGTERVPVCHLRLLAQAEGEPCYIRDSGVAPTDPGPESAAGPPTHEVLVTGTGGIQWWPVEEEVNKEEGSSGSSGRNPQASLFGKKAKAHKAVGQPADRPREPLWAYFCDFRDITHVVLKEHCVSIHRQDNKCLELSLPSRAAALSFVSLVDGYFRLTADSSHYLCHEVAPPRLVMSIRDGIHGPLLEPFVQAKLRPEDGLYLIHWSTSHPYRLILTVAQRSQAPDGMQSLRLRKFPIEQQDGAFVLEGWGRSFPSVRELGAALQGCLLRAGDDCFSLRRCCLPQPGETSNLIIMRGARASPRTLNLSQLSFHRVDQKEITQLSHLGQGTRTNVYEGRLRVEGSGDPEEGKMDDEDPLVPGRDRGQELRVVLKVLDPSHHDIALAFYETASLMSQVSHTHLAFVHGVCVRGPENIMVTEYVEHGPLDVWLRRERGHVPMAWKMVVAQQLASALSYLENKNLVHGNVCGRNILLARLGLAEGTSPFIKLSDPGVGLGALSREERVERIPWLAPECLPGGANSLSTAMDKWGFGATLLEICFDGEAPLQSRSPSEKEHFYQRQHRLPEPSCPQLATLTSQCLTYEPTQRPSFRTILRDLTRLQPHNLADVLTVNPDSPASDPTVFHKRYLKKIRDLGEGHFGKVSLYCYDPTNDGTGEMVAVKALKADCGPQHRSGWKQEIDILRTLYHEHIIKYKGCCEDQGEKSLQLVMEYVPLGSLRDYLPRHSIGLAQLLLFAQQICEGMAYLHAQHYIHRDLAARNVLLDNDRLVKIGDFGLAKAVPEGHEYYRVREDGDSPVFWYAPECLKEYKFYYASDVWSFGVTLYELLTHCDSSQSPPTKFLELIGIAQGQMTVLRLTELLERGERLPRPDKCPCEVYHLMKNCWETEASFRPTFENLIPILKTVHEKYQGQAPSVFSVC
Method in brief: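 Activity read as the 665 nm/615 nm ratio after adding EDTA-containing detection mix with anti-phospho-substrate antibody and XL-615. Beforehand, 0.2 ng/μL TYK2, 2 μM ATP, substrate and compound reacted 1 h in pH 7.0 Hepes buffer with MgCl2 and DTT. IC50 fitted with Hill-slope equation.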

Chain of JAK1 (P23458 whole entry): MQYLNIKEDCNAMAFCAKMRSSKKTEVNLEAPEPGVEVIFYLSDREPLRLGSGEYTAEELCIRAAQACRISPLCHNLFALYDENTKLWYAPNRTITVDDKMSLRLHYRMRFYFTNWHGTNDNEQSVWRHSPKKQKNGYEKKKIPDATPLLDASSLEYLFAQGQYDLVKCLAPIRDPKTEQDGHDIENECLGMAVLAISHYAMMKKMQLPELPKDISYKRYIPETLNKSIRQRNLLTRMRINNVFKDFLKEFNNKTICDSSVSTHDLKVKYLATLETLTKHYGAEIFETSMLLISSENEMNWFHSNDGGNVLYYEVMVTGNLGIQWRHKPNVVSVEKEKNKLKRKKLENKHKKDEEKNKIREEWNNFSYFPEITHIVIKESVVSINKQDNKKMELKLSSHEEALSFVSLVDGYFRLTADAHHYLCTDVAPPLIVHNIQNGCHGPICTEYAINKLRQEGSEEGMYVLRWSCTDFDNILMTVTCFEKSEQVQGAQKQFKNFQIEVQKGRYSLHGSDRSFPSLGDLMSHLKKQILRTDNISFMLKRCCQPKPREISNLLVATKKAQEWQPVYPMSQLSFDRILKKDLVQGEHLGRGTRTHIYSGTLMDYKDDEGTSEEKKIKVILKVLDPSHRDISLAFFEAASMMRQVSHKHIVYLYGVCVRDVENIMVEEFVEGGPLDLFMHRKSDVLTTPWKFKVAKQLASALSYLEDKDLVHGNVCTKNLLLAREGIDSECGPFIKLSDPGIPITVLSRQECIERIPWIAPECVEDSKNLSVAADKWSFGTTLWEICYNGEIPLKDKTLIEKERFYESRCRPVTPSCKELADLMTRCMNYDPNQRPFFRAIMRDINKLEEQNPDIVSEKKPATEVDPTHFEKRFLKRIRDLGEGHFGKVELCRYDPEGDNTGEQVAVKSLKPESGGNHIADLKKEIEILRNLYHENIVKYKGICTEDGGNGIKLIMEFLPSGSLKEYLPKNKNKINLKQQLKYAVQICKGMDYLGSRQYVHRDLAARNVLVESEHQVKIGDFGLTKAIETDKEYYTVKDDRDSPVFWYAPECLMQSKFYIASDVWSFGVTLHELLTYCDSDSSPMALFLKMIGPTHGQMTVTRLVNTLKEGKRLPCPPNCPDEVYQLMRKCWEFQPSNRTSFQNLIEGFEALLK

Row | SMILES | IC50 (JAK1) | IC50 (JAK2) | IC50 (JAK3) | IC50 (TYK2)
1 | Cc1cc2ccc1-c1ccnc(n1)Nc1cc(cc(N3CCOCC3)c1)COCCCCNC2=O [Example 46, 1^2-methyl-4^4-morpholin-6-oxa-3,11-diaza-2(4,2)-pyrimidina-1(1,4),4(1,3)-dibenzenacyclododecaphan-12-one] | 1 to 10 µM | 0.101 to 1 µM | 0.011 to 0.1 µM | 1 to 10 µM
2 | CN1CCN(c2ccc3cc2COCCCCNC(=O)c2ccc(c([N+](=O)[O-])c2)-c2ccnc(n2)N3)CC1 [Example 59, 1^2-nitro-4^4-(4-methylpiperazin-1-)-6-oxa-3,11-diaza-2(4,2)-pyrimidina-1(1,4),4(1,3)-dibenzenacyclododeca-phan-12-one] | 1 to 10 µM | 1 to 10 µM | 0.101 to 1 µM | > 10 µM
3 | Nc1cc2ccc1-c1ccnc(n1)Nc1ccc(OC3CCCC3)c(c1)COCCCCNC2=O [Example 88, 1^2-amino-4^4-cyclopentoxy-6-oxa-3,11-diaza-2(4,2)-pyrimidina-1(1,4),4(1,3)-dibenzenacyclododecaphan-12-one] | 0.101 to 1 µM | 0.011 to 0.1 µM | < 0.01 µM | 1 to 10 µM
4 | O=C1Nc2ccc(cc2)OCc2cc(ccc2OC2CC2)Nc2nccc(n2)-c2ccc1cc2O [Example 217, 4^4-cyclopropoxy-1^2-hydroxy-6-oxa-3,8-diaza-2(4,2)-pyrimidina-1,7(1,4),4(1,3)-tribenzenacyclononaphane-9-one] | 0.101 to 1 µM | 0.101 to 1 µM | 0.011 to 0.1 µM | 1 to 10 µM
5 | CC(C)COc1ccc2cc1COCCCCNC(=O)c1ccc(c(N)c1)-c1ccnc(n1)N2 [Example 116, 1^2-amino-4^4-isobutoxy-6-oxa-3,11-diaza-2(4,2)-pyrimidina-1(1,4),4(1,3)-dibenzenacyclododecaphan-12-one] | 0.101 to 1 µM | 0.101 to 1 µM | < 0.01 µM | 1 to 10 µM

The remaining lines, values ahead:

Row | IC50 (JAK1) | IC50 (JAK2) | IC50 (JAK3) | IC50 (TYK2) | SMILES
6 | 1 to 10 µM | 1 to 10 µM | 0.011 to 0.1 µM | 1 to 10 µM | COc1cc(Cl)cc(F)c1COc1ccc2cc1COCCCCNC(=O)c1ccc(c(N)c1)-c1ccnc(n1)N2 [Example 193, 1^2-amino-4^4-((4-chloro-2-fluoro-6-methoxybenzyl)oxy)-6-oxa-3,11-diaza-2(4,2)-pyrimidina-1(1,4),4(1,3)-dibenzenacyclododecaphan-12-one]
7 | 0.101 to 1 µM | 0.011 to 0.1 µM | < 0.01 µM | 0.101 to 1 µM | Nc1cc2ccc1-c1ccnc(n1)Nc1ccc(N3CCOCC3)c(c1)COCCCCNC2=O [Example 31, 1^2-amino-4^4-morpholin-6-oxa-3,11-diaza-2(4,2)-pyrimidina-1(1,4),4(1,3)-dibenzenacyclododecaphan-12-one]
8 | 1 to 10 µM | 0.101 to 1 µM | 0.011 to 0.1 µM | > 10 µM | Nc1cc2ccc1-c1ccnc(n1)Nc1ccc(Oc3ccc(F)cc3)c(c1)COCCCCNC2=O [Example 107, 1^2-amino-4^4-(4-fluorophenoxy)-6-oxa-3,11-diaza-2(4,2)-pyrimidina-1(1,4),4(1,3)-dibenzenacyclo-dodecaphan-12-one]
9 | > 10 µM | 1 to 10 µM | 1 to 10 µM | > 10 µM | CC1(C)CCNC(=O)c2ccc(c(N)c2)-c2ccnc(n2)Nc2ccc(OC3CCCOC3)c(c2)COC1 (stereo not shown) [Example 168, 1^2-amino-8,8-dimethyl-4^4-((tetra-hydro-2H-pyran-3-yl)oxy)-6-oxa-3,11-diaza-2(4,2)-pyrimidina-1(1,4),4(1,3)-dibenzenacyclododecaphan-12-one]
10 | 1 to 10 µM | 1 to 10 µM | 0.101 to 1 µM | > 10 µM | COc1ccc(F)cc1COc1ccc2cc1COCCCCNC(=O)c1ccc(c(N)c1)-c1ccnc(n1)N2 [Example 177, 1^2-amino-4^4-((5-fluoro-2-methoxy-benzyl)oxy)-6-oxa-3,11-diaza-2(4,2)-pyrimidina-1(1,4),4(1,3)-dibenz-enacyclododecaphan-12-one]

From patent publication US20230203059A1, “MACROCYCLIC JAK INHIBITOR AND USES THEREOF” (Biopolar Hongye (Guangdong) Pharmaceutical Co. Ltd., priority 2020, published 2023)
